“And” between values parts separate entries of the source, which are not always exact repeats. Equal values may be shown once. “Also recorded” adds a separate entry of the source. Where a name gives a salt, the structure may show the parent alone. Read-outs that look alike come from different tables or passages of the source.
Legend:
HIV-2 (ROD) = experiment: microbe, parasite or virus in culture; type: cell-based; conditions: Human immunodeficiency virus 2, CCRF-CEM, read-out: EC50 (CEM) HIV-2 (ROD)
Protocol: Human T-lymphocytic CEM cells (4.5×10^5 cells per ml) were suspended in fresh cell culture medium and infected with HIV-1 (IIIB and NL4.3) or HIV-2 (ROD or EHO) at 100 CCID50 (1 CCID50 being the virus dose infective for 50% of the cell cultures) per ml of cell suspension. Then, 100 μl of the infected cell suspension were transferred to microplate wells, mixed with 100 μl of appropriate (freshly prepared) dilutions of the test compounds (i.e., at final concentrations of […]), and were further incubated at 37° C. After 4 to 5 days, giant cell formation was recorded microscopically in the CEM cell cultures. […] (See Table 1).
(§1) MT-4, C8166 or CEM cells (4 to 5×10^5 cells per ml) were suspended in fresh culture medium (RPMI-1640 medium supplemented with 10% fetal bovine serum (FBS) (BioWittaker Europe, Verviers, Belgium), 2 mM L-glutamine and […] NaHCO3). Subsequently, the cells were infected with HIV-1 (IIIB) or HIV-2(ROD) at ˜100 CCID50 (1 CCID50 being the dose infective for 50% of the cell cultures) per ml of cell suspension. Then, 100 μl of the infected cell suspension were transferred to 96-well microplate wells, mixed with 100 μl of the appropriate (5-fold) dilutions of the test compounds and further incubated at 37° C. After 4 to 5 days, giant cell formation was recorded microscopically in the CEM and C8166 cell cultures. The MT-4 cell cultures were treated with trypan blue and the number of viable cells was determined.

HIV-1 (IIIB) = experiment: microbe, parasite or virus in culture; conditions: Human immunodeficiency virus 1, IIIB
Protocol: as §1

HIV-2(ROD) = experiment: microbe, parasite or virus in culture
Protocol: as §1

HIV (SF2 virus) [1] = experiment: HIV infectivity assay, SF2-infected H9 cells, reverse transcriptase (RT) quantification in supernatant; type: cell-based; conditions: for RT mean / RT / OD405-620 / OD405-620 - Blank: fetal calf serum; for RT mean: mean of replicates; for RT: single replicate; for RT / OD405-620 / OD405-620 - Blank: listed as αHGA, hydrochloride
HIV (SF2 virus) [2] = experiment: HIV infectivity assay, SF2-infected H9 cells, p24 quantification; type: cell-based; conditions: hydrochloride
Protocol: The remaining wells were filled with sterile distilled water. The cell culture plates were incubated at 37° C. and 5% CO2. After four days the medium was changed, after eight days the medium was changed and the cells were collected. After 11 days, the infection was stopped, the cells were viewed in a 10× magnification microscope and 650 μl of each cell supernatant was collected and frozen at −80° C. for further analysis. After five more days, the supernatants were thawed and used in a conventional reverse transcriptase (RT) activity assay (e.g., Roche AMPLICOR MONITOR™) or a p24 quantification assay (e.g., Abbott Laboratories, Chicago). (See U.S. Pat. No. 6,258,932 and U.S. patent application Ser. No. 10/235,158, both of which are hereby expressly incorporated by reference in its entireties).
[…] The cells in the samples were counted and then centrifuged. The cells were then resuspended in 10 ml of RPMI 1640 (containing fetal calf serum) and either […] Metabolite X or 100 μM GPG-NH2. Uninfected control and untreated control samples were also included in the experiment. The samples were then incubated overnight at 37° C. at 5% CO2.
Then, the amount of p24 in the samples was analysed using a conventional p24 detection assay (see U.S. Pat. No. 6,258,932).
Three replicate samples (“replicates”) of uninfected samples and untreated samples were also included in the experiment as controls. The inhibition of HIV replication was monitored by quantifying the levels of p24 using a conventional detection kit.
Three replicates of unninfected samples and untreated samples were also included in the experiment as controls.

NC(=O)C(N)O (stereo not drawn) [AlphaHGA, α-Hydroxy-glycinamide hydrochloride]
EC50 (HIV-2 (ROD)): 52 ± 23 µM | EC50 (HIV-1 (IIIB); C8166, read-out: EC50 (C8166) HIV-1 (IIIB)): 200 µM | EC50 (HIV-1 (IIIB); MT4, read-out: EC50 (MT-4) HIV-1 (IIIB)): ≥ 500 µM | EC50 (HIV-1 (IIIB); MT4, read-out: EC50 (MT-4) HIV-1(IIIB)): ≥ 500 µM | EC50 (HIV-2(ROD); Human immunodeficiency virus 2, C8166, read-out: EC50 (C8166) HIV-2 (ROD)): 125 µM | EC50 (HIV-2(ROD); Human immunodeficiency virus 2, MT4, read-out: EC50 (MT-4) HIV-2 (ROD)): ≥ 500 µM | EC50 (HIV-2(ROD); read-out: EC50 (MT-4) HIV-2 (ROD), Table 20): ≥ 500 µM | RT mean (HIV (SF2 virus) [1]; 0.5 μM): 7539 pg/mL | RT (HIV (SF2 virus) [1]; 0.5 μM): 6982 pg/mL and 9916 pg/mL and 5721 pg/mL | OD405-620 (HIV (SF2 virus) [1]; 0.5 μM): 0.692 and 0.962 and 0.576 | OD405-620 - Blank (HIV (SF2 virus) [1]; 0.5 μM): 0.666 and 0.936 and 0.55 | RT mean (HIV (SF2 virus) [1]; 1 μM): 4594 pg/mL | RT (HIV (SF2 virus) [1]; 1 μM): 5590 pg/mL and 4482 pg/mL and 3710 pg/mL | OD405-620 (HIV (SF2 virus) [1]; 1 μM): 0.564 and 0.462 and 0.391 | OD405-620 - Blank (HIV (SF2 virus) [1]; 1 μM): 0.538 and 0.436 and 0.365 | RT mean (HIV (SF2 virus) [1]; 2 μM): 5934 pg/mL | RT (HIV (SF2 virus) [1]; 2 μM): 8003 pg/mL and 6492 pg/mL and 3308 pg/mL | RT mean (HIV (SF2 virus) [1]; 4 μM): 5315 pg/mL | RT (HIV (SF2 virus) [1]; 4 μM): 5340 pg/mL and 4688 pg/mL and 5916 pg/mL | OD405-620 (HIV (SF2 virus) [1]; 4 μM): 0.541 and 0.481 and 0.594 | OD405-620 - Blank (HIV (SF2 virus) [1]; 4 μM): 0.515 and 0.455 and 0.568 | RT mean (HIV (SF2 virus) [1]; 8 μM): 5300 pg/mL | RT (HIV (SF2 virus) [1]; 8 μM): 6688 pg/mL and 4971 pg/mL and 4242 pg/mL | OD405-620 (HIV (SF2 virus) [1]; 8 μM): 0.665 and 0.507 and 0.44 | OD405-620 - Blank (HIV (SF2 virus) [1]; 8 μM): 0.639 and 0.481 and 0.414 | RT mean (HIV (SF2 virus) [1]; 16 μM): 1134 pg/mL | RT (HIV (SF2 virus) [1]; 16 μM): 1514 pg/mL and 666 pg/mL and 1221 pg/mL | OD405-620 (HIV (SF2 virus) [1]; 16 μM): 0.189 and 0.111 and 0.162 | OD405-620 - Blank (HIV (SF2 virus) [1]; 16 μM): 0.163 and 0.085 and 0.136 | HIV replication at 25 μM (HIV (SF2 virus) [1]; 25 μM): neglible levels | RT mean (HIV (SF2 virus) [1]; 32 μM): 72 pg/mL | RT (HIV (SF2 virus) [1]; 32 μM): 48 pg/mL and 70 pg/mL and 97 pg/mL | OD405-620 (HIV (SF2 virus) [1]; 32 μM): 0.269 and 0.373 and 0.497 | OD405-620 - Blank (HIV (SF2 virus) [1]; 32 μM): 0.243 and 0.347 and 0.471 | IC50 (HIV (SF2 virus) [1]; Human immunodeficiency virus 1, H9, 264 h): 6 to 9 µM | stability to incubation at 37° C. (HIV (SF2 virus) [1]; diluted sample, antiretroviral activity compared with freshly diluted compound): stable to incubation at 37 °C for at least three days | concentration for appreciable inhibition of HIV replication (HIV (SF2 virus) [1]; whether heat-treated or not): above 8 μM | concentration for better antiretroviral activity (HIV (SF2 virus) [1]; whether heat-treated or not): above 16 μM | concentration for very efficient inhibition of HIV replication (HIV (SF2 virus) [1]; whether heat-treated or not): above 30 μM | OD1 (HIV (SF2 virus) [2]; 50 μM, fetal calf serum, replicates (1)-(3)): 0.183 and 0.232 and 0.147 | OD2 (HIV (SF2 virus) [2]; 50 μM, fetal calf serum): 0.185 and 0.216 and 0.139 | conc p24 (HIV (SF2 virus) [2]; 50 μM, fetal calf serum): 0.26 ng/mL and 0.33 ng/mL and 0.20 ng/mL | mean OD (HIV (SF2 virus) [2]; 50 μM, fetal calf serum): 0.184 and 0.224 and 0.143 | mean OD - blank (HIV (SF2 virus) [2]; 50 μM, fetal calf serum): 0.142 and 0.182 and 0.101 | inhibition of HIV, accumulation of p24, compared with reference (HIV (SF2 virus) [2]; fetal calf serum): as effectively as GPG-NH2; also recorded: as effectively as G-NH2 | inhibition of HIV replication, accumulation of p24 (HIV (SF2 virus) [2]; human serum): effective inhibitors of HIV replication in human serum; also recorded: inhibited HIV replication in human serum

Source: patent US20080076824A1, “Compounds That Inhibit Replication Of Human Immunodeficiency Virus” (priority 2004, published 2008)
